Laboratory results: the NIST ThermoML archive (doi:10.1016/j.fluid.2014.04.002)

Assay: refractive index (Na D-line) (dimensionless); xn = mol fraction of the nth substance listed
Conditions: 101 kPa, Liquid, Standard Abbe refractometry

CCOC(=O)C(C)O (stereo not drawn) [DL-ethyl lactate] + CC(O)CO
refractive index
Conditions | x1 = 0.1 | x1 = 0.2 | x1 = 0.3 | x1 = 0.3999 | x1 = 0.4998 | x1 = 0.599 | x1 = 0.6999 | x1 = 0.7994 | x1 = 0.8997 | x1 = 1
288.15 K | 1.43169 | 1.42919 | 1.42688 | 1.42476 | 1.42287 | 1.42116 | 1.41959 | 1.41814 | 1.41676 | 1.41537
293.15 K | 1.42994 | 1.42736 | 1.42499 | 1.4228 | 1.42086 | 1.4191 | 1.41747 | 1.41597 | 1.41452 | 1.41307
298.15 K | 1.42819 | 1.42554 | 1.42309 | 1.42085 | 1.41883 | 1.41701 | 1.41532 | 1.41377 | 1.41227 | 1.41076
303.15 K | 1.42642 | 1.42369 | 1.42118 | 1.41886 | 1.41679 | 1.41491 | 1.41316 | 1.41155 | 1.40999 | 1.40843
308.15 K | 1.42461 | 1.42181 | 1.41924 | 1.41688 | 1.41475 | 1.41282 | 1.41102 | 1.40935 | 1.40773 | 1.4061
313.15 K | 1.42279 | 1.41992 | 1.41729 | 1.41488 | 1.4127 | 1.41071 | 1.40884 | 1.40711 | 1.40542 | 1.40374
318.15 K | 1.42098 | 1.41801 | 1.41529 | 1.41282 | 1.41055 | 1.4085 | 1.40659 | 1.40481 | 1.40309 | 1.40136
323.15 K | 1.41918 | 1.41615 | 1.41337 | 1.41082 | 1.40849 | 1.40637 | 1.40437 | 1.40252 | 1.40073 | 1.39898

CCOC(=O)C(C)O (stereo not drawn) [DL-ethyl lactate] + OCCCO
refractive index
Conditions | x1 = 0.1001 | x1 = 0.2001 | x1 = 0.3 | x1 = 0.3998 | x1 = 0.4996 | x1 = 0.5997 | x1 = 0.7 | x1 = 0.8 | x1 = 0.8997 | x1 = 1
288.15 K | 1.43819 | 1.43549 | 1.43282 | 1.43021 | 1.42764 | 1.4251 | 1.42262 | 1.42017 | 1.41776 | 1.41537
293.15 K | 1.43668 | 1.43388 | 1.43111 | 1.4284 | 1.42573 | 1.42312 | 1.42055 | 1.41803 | 1.41554 | 1.41307
298.15 K | 1.43517 | 1.43227 | 1.4294 | 1.42658 | 1.42383 | 1.42114 | 1.41851 | 1.41592 | 1.41336 | 1.41076
303.15 K | 1.43362 | 1.43062 | 1.42766 | 1.42476 | 1.42192 | 1.41914 | 1.4164 | 1.41371 | 1.41107 | 1.40843
308.15 K | 1.43214 | 1.42902 | 1.42592 | 1.42292 | 1.41996 | 1.41713 | 1.41427 | 1.41152 | 1.40882 | 1.4061
313.15 K | 1.43065 | 1.42743 | 1.42421 | 1.42111 | 1.41805 | 1.41506 | 1.41215 | 1.40932 | 1.40654 | 1.40374
318.15 K | 1.42914 | 1.4258 | 1.42249 | 1.41923 | 1.41608 | 1.41301 | 1.41004 | 1.40715 | 1.40428 | 1.40136
323.15 K | 1.42761 | 1.42417 | 1.42075 | 1.41741 | 1.41415 | 1.41097 | 1.40792 | 1.40493 | 1.40198 | 1.39898
